Reference: patent US10624948B2, “Use of cell-permeable peptide inhibitors of the JNK signal transduction pathway for the treatment of various diseases” (Xigen Inflammation Ltd., priority 2013, dated 2020)

Legend:
[1] = system: post-operative intraocular inflammation; conditions: Dexamethasone (N = 50)
Experimental: The objectives of the SDD-1002-035 study were to evaluate the efficacy and safety of a single sub-conjunctival injection of XG-102 90 or 900 μg administered within maximally 3 hours after the end of the surgical procedure compared to dexamethasone eye drops administered 4 times/day for 21 days in post-operative intraocular inflammation.
In accordance with this trial's primary objective, the primary outcome was evaluated by the mean anterior chamber cells grade at day 28 post-administration of the sub-conjunctival injection of study treatment comparing XG-102 900 μg with dexamethasone eye drops.
The present trial was a randomized (1:1:1), controlled, double-blind, multicenter non-inferiority clinical trial with three parallel groups of equal size. Randomization, which was blocked by center, was performed using a web-based, secure, randomization system. […]
The primary objective was evaluated by the mean anterior chamber cells grade at day 28 post-administration of the sub-conjunctival administration of study treatment. […]

[2] = Phase II trial, safety and tolerability (adverse events)
Experimental: The criteria for evaluation of safety were:
An AE is therefore any unfavorable and unintended sign, symptom or disease temporally associated with the use of a medicinal product, whether or not considered related to the medicinal product.
Patients were analyzed as treated, i.e. according to the treatment which they received. The safety set was the primary analysis set for the safety analysis.
The present study was a double-blind study. All patients who were randomized and for whom the sub-conjunctival injection was started are included in the safety analysis by dose group. […] If the study treatment eye drops were stopped prematurely (i.e. before day 21), the patients concerned continued follow-up until day 28, in accordance with the study protocol.
Investigators assessed (in a blinded manner) the relationship of each reported AE to any of the study treatments. An event was considered to be related to study treatment if the Investigator ticked either ‘possible’ or ‘probable’ as the reply to this question.

[3] = system: Sprague-Dawley rats, STZ diabetic nephropathy; test: Rat model of diabetic nephropathy (STZ, high fat diet); format: in vivo; conditions: Losartan 25 mg/kg po daily
Experimental: Losartan has been used as a positive control. Seventy-four male Sprague-Dawley rats (200-250 g; including 4 spare animals) from Charles River (Margate, Kent) were used. Rats were housed in pairs in polypropylene cages with free access to a high fat diet (D12492 60% of kcal derived from fat) and tap water at all times. The diet has been purchased from Research Diets, New Jersey, USA. All animals have been maintained at 21±4° C. and 55±20% humidity on a normal light (lights on: 07:00-19:00). […] About 40 animals have been assigned to Cohort A and the remaining 30 to Cohort B, balanced as far as possible for body weight, plasma glucose and food and water intake. […] In all groups, food and water intake have been determined twice weekly (on the day of iv dosing and on water refill days. Blood glucose has been determined monthly. Samples were collected as detailed previously by glucometer (One Touch Ultra2). Blood samples have been taken in the freely fed state (beginning at approx. 09:00). Animals have been dosed immediately afterwards by the respective route to a timed schedule. Subsequent to dosing, each animal has been placed in a metabolism cage with free access to food and water for a 24 h period. To reduce evaporation, the glass urine collectors have been placed in a polystyrene container (Sca-online, UK) which was filled with ice. […] Food consumed and water drunk has also been calculated. […]

SMILES: C[C@@H]1C[C@H]2[C@@H]3CCC4=CC(=O)C=C[C@]4(C)[C@@]3(F)[C@@H](O)C[C@]2(C)[C@@]1(O)C(=O)CO [dexamethasone, reference compound]
- Premature withdrawal of study tx eye drops, # patients (%) [1]: 3 (6.0%)
- Adverse events which led to an interruption of study treatment ([2]; Dexamethasone dose group): 3 (5.5%) number of events (%)
- patients with Intraocular pressure increased ([2]; dexamethasone): 14%
- percentage of patients who experienced an AE within 24 hours ([2]; dexamethasone group): 30%

SMILES: CCCCc1nc(Cl)c(CO)n1Cc1ccc(-c2ccccc2-c2nn[nH]n2)cc1 [Losartan]
- body weight [3]: significantly lower
